From PubChem BioAssay (NCI)
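Where inhibition never reached the appropriate level, the endpoint shown equals the highest concentration tested. Otherwise, values were interpolated linearly from a five-concentration, 48-hour dose response in 96-well plates. GI50: concentration for 50% inhibition of growth. The concentration for full growth arrest is given as TGI.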

Experiments:
Experiment in all cases: growth of human tumour cells (NCI), 48 h
[1] = tested on: 786-0 renal
[2] = tested on: A498 renal
[3] = tested on: A549 NSCLC
[4] = tested on: ACHN renal
[5] = tested on: BT-549 breast
[6] = tested on: CAKI-1 renal
[7] = tested on: CCRF-CEM leukemia
[8] = tested on: COLO 205 colon
[9] = tested on: DU-145 prostate
[10] = tested on: EKVX NSCLC
[11] = tested on: HCC-2998 colon
[12] = tested on: HCT-116 colon
[13] = tested on: HCT-15 colon
[14] = tested on: HL-60(TB) leukemia
[15] = tested on: HOP-62 NSCLC
[16] = tested on: HOP-92 NSCLC
[17] = tested on: HS 578T breast
[18] = tested on: HT29 colon
[19] = tested on: IGROV1 ovarian
[20] = tested on: K-562 leukemia
[21] = tested on: KM12 colon
[22] = tested on: LOX IMVI melanoma
[23] = tested on: M14 melanoma
[24] = tested on: MALME-3M melanoma
[25] = tested on: MCF7 breast
[26] = tested on: MDA-MB-231 breast
[27] = tested on: MDA-MB-435
[28] = tested on: MDA-MB-468 breast
[29] = tested on: MOLT-4 leukemia

CN(C)CCOc1ccc(C(=O)C2[C@H](c3ccc(Cl)cc3)[C@@H](c3ccccc3)NC23C(=O)Nc2ccc(Br)cc23)cc1 (stereo partly drawn)
GI50 [1]: 2.68 µM | TGI [1]: 4.95 µM | GI50 [2]: 2.53 µM | TGI [2]: 4.99 µM | GI50 [3]: 2.51 µM | TGI [3]: 4.85 µM | GI50 [4]: 2.55 µM | TGI [4]: 4.77 µM | GI50 [5]: 3 µM | TGI [5]: 5.82 µM | GI50 [6]: 2.38 µM | TGI [6]: 4.54 µM | GI50 [7]: 3.09 µM | TGI [7]: 7.86 µM | GI50 [8]: 2.75 µM | TGI [8]: 5.37 µM | GI50 [9]: 2.7 µM | TGI [9]: 5 µM | GI50 [10]: 2.24 µM | TGI [10]: 4.4 µM | GI50 [11]: 2.22 µM | TGI [11]: 4.39 µM | GI50 [12]: 2.4 µM | TGI [12]: 4.82 µM | GI50 [13]: 2.6 µM | TGI [13]: 4.95 µM | GI50 [14]: 2.89 µM | TGI [14]: 6.75 µM | GI50 [15]: 2.69 µM | TGI [15]: 5.56 µM | GI50 [16]: 1.74 µM | TGI [16]: 3.8 µM | GI50 [17]: 2.18 µM | TGI [17]: 6.88 µM | GI50 [18]: 2.47 µM | TGI [18]: 5.2 µM | GI50 [19]: 2.51 µM | TGI [19]: 4.79 µM | GI50 [20]: 2.73 µM | TGI [20]: 9.03 µM | GI50 [21]: 2.8 µM | TGI [21]: 5.46 µM | GI50 [22]: 2.42 µM | TGI [22]: 4.61 µM | GI50 [23]: 2.89 µM | TGI [23]: 5.45 µM | GI50 [24]: 2.43 µM | TGI [24]: 4.81 µM | GI50 [25]: 2.41 µM | TGI [25]: 5.05 µM | GI50 [26]: 2.41 µM | TGI [26]: 4.59 µM | GI50 [27]: 2.59 µM | TGI [27]: 4.84 µM | GI50 [28]: 2.4 µM | TGI [28]: 4.68 µM | GI50 [29]: 2.58 µM | TGI [29]: 6.53 µM
